Test results as given in patent publication US12624018B1, “Inhibitors of RIPK2 and medical uses thereof” (Odyssey Therapeutics, Inc., priority 2022, dated 2026).

Target: T1, RIPK2 enzyme (Homo sapiens, UniProt O43353)
T1 construct: purchased Carna 09-128
Assay: RIPK2 inhibition (ADP-Glo Kinase Assay)
Type: biochemical
Details: RIPK2 5 nM, ATP 150 μM, MBP substrate, read-out: RIPK2 IC50
Procedure, shortened: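 Swine MBP substrate; compound and 5 nM RIPK2 first mixed for 30 min at room temperature; buffer pH 7.5 HEPES 50 mM with 10 mM MgCl2, 2 mM DTT, 1 mM EGTA, Brij-35, BSA.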

T1 sequence (O43353 1-299 limits assumed): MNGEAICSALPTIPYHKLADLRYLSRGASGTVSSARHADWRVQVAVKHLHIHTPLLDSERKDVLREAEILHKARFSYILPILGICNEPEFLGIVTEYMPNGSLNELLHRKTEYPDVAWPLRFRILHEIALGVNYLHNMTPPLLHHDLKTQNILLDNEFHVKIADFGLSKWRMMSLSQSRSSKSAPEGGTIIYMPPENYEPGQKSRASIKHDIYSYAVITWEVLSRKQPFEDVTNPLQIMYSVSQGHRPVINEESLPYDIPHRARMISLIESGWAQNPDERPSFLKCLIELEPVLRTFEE

Structure (SMILES) | IC50 [µM]
CN(C)C(=O)c1ccc2ncnc(Oc3ccc(CC(=O)Nc4cnn(C(C)(C)C)c4)c(F)c3)c2c1 [Compound 26, 4-(4-(2-((1-(tert-butyl)-1H-pyrazol-4-yl)amino)-2-oxoethyl)-3-fluorophenoxy)-N,N-dimethylquinazoline-6-carboxamide] | 0.021
CC(C)(C)n1cc(NC(=O)Cc2ccc(Oc3ncnc4ccc(C(=O)N5CCCC5)cc34)cc2F)cn1 [Compound 27, N-(1-(tert-butyl)-1H-pyrazol-4-yl)-2-(2-fluoro-4-((6-(pyrrolidine-1-carbonyl)quinazolin-4-yl)oxy)phenyl) acetamide] | 0.0192
COc1ccc2ncnc(Oc3ccc(CC(=O)Nc4cc(C(C)(C)C)ccn4)c(F)c3)c2c1 [Compound 28, N-(4-(tert-butyl)pyridin-2-yl)-2-(2-fluoro-4-((6-methoxy-quinazolin-4-yl)oxy)phenyl) acetamide] | 0.0127
COc1ccc2ncnc(Oc3cnc(CC(=O)Nc4cc(C(C)(C)C)ccn4)c(F)c3)c2c1 [Compound 29, N-(4-(tert-butyl)pyridin-2-yl)-2-(3-fluoro-5-((6-methoxy-quinazolin-4-yl)oxy)pyridin-2-yl)acetamide] | 0.0052
COc1ccc2ncnc(Oc3ccc(CC(=O)Nc4cc(C(C)(C)C)cnn4)c(F)c3)c2c1 [Compound 30, N-(5-(tert-butyl)pyridazin-3-yl)-2-(2-fluoro-4-((6-methoxy-quinazolin-4-yl)oxy)phenyl) acetamide] | 0.0072
COc1ccc2ncnc(Oc3cnc(CC(=O)Nc4cc(C(C)(C)C)cnn4)c(F)c3)c2c1 [Compound 31, N-(5-(tert-butyl)pyridazin-3-yl)-2-(3-fluoro-5-((6-methoxy-quinazolin-4-yl)oxy)pyridin-2-yl)acetamide] | 0.0198
COc1ccc2ncnc(Oc3ccc(CC(=O)Nc4cc(C(C)(C)C)ncn4)c(F)c3)c2c1 [Compound 32, N-(6-(tert-butyl)pyrimidin-4-yl)-2-(2-fluoro-4-((6-methoxyquinazolin-4-yl)oxy)phenyl)acetamide] | 0.0137
COc1ccc2ncnc(Oc3cnc(CC(=O)Nc4cc(C(C)(C)C)ncn4)c(F)c3)c2c1 [Compound 33, N-(6-(tert-butyl)pyrimidin-4-yl)-2-(3-fluoro-5-((6-methoxy-quinazolin-4-yl)oxy)pyridin-2-yl)acetamide] | 0.0854
COc1ccc2ncnc(Oc3ccc(CC(=O)Nc4cc(C5(C(F)(F)F)CC5)ccn4)c(F)c3)c2c1 [Compound 34, 2-(2-fluoro-4-((6-methoxyquinazolin-4-yl)oxy)phenyl)-N-(4-(1-(trifluoromethyl)cyclopropyl)pyridin-2-yl)acetamide] | 0.0333
COc1ccc2ncnc(Oc3ccc(CC(=O)Nc4cc(C(C)(C)CO)ccn4)c(F)c3)c2c1 [Compound 35, 2-(2-fluoro-4-((6-methoxy-quinazolin-4-yl)oxy)phenyl)-N-(4-(1-hydroxy-2-methylpropan-2-yl)pyridin-2-yl)acetamide] | 0.0296
CC(C)(C)n1cc(NC(=O)Cc2ccc(Oc3ccnc4ccc(P(C)(C)=O)cc34)cc2F)cn1 [Compound 36, N-(1-(tert-butyl)-1H-pyrazol-4-yl)-2-(4-((6-(dimethylphosphoryl)quinolin-4-yl)oxy)-2-fluorophenyl)acetamide] | 0.0047
COc1ccc2ncnc(Oc3ccc(CC(=O)Nc4cc(C(C)(C)C)n(C)n4)c(F)c3)c2c1 [Compound 37, N-(5-(tert-butyl)-1-methyl-1H-pyrazol-3-yl)-2-(2-fluoro-4-((6-methoxy-quinazolin-4-yl)oxy)phenyl) acetamide] | 0.0078
COc1cc2nccc(Oc3ccc(CC(=O)Nc4cnn(C(C)(C)C)c4)c(F)c3)c2cc1S(C)(=O)=O [Compound 39, N-(1-(tert-butyl)-1H-pyrazol-4-yl)-2-(2-fluoro-4-((7-methoxy-6-(methylsulfonyl)quinolin-4-yl)oxy)phenyl)acetamide] | < 0.0025
Cn1nc(NC(=O)Cc2ccc(Oc3ccnc4ccc(S(C)(=O)=O)cc34)cc2F)cc1C(C)(C)C [Compound 40, N-(5-(tert-butyl)-1-methyl-1H-pyrazol-3-yl)-2-(2-fluoro-4-((6-(methylsulfonyl)quinolin-4-yl)oxy)phenyl)acetamide] | < 0.0025
Cn1nc(NC(=O)Cc2ncc(Oc3ccnc4ccc(S(C)(=O)=O)cc34)cc2F)cc1C(C)(C)C [Compound 41, N-(5-(tert-butyl)-1-methyl-1H-pyrazol-3-yl)-2-(3-fluoro-5-((6-(methylsulfonyl)quinolin-4-yl)oxy)pyridin-2-yl)acetamide] | 0.0076
CC(C)(C)c1cc(NC(=O)Cc2ncc(Oc3ccnc4ccc(S(C)(=O)=O)cc34)cc2F)n[nH]1 [Compound 42, N-(5-(tert-butyl)-1H-pyrazol-3-yl)-2-(3-fluoro-5-((6-(methylsulfonyl)quinolin-4-yl)oxy)pyridin-2-yl)acetamide] | 0.0055
C[S+]([O-])c1ccc2ncnc(Oc3ccc(CC(=O)Nc4cnn(C(C)(C)C)c4)c(F)c3)c2c1 (stereo not drawn) [Compound 44, N-(1-(tert-butyl)-1H-pyrazol-4-yl)-2-(2-fluoro-4-((6-(methylsulfinyl)quinazolin-4-yl)oxy)phenyl)acetamide] | 0.0262
C[S+]([O-])c1ccc2nccc(Oc3ccc(CC(=O)Nc4cnn(C(C)(C)C)c4)c(F)c3)c2c1 (stereo not drawn) [Compound 45, N-(1-(tert-butyl)-1H-pyrazol-4-yl)-2-(2-fluoro-4-((6-(methylsulfinyl)quinolin-4-yl)oxy)phenyl)acetamide] | < 0.0025
CC(C)(C)n1cc(NC(=O)Cc2ccc(Oc3ccnc4ccc(S(N)(=O)=O)cc34)cc2F)cn1 [Compound 46, N-(1-(tert-butyl)-1H-pyrazol-4-yl)-2-(2-fluoro-4-((6-sulfamoylquinolin-4-yl)oxy)phenyl)acetamide] | < 0.0025
COc1ccc2ncnc(Oc3ccc(CC(=O)Nc4cnn(C(C)(C)C)c4)c(F)c3F)c2c1 [Compound 47, N-(1-(tert-butyl)-1H-pyrazol-4-yl)-2-(2,3-difluoro-4-((6-methoxy-quinazolin-4-yl)oxy)phenyl) acetamide] | 0.0039
CCOc1ccc2nccc(Oc3cnc(CC(=O)Nc4cnn(C(C)(C)C)c4)c(F)c3)c2c1 [Compound 48, N-(1-(tert-butyl)-1H-pyrazol-4-yl)-2-(5-((6-ethoxyquinolin-4-yl)oxy)-3-fluoropyridin-2-yl)acetamide] | 0.0092
CC(C)(C)n1cc(NC(=O)Cc2ccc(Oc3ncnc4ccc(OC5COC5)cc34)cc2F)cn1 [Compound 49, N-(1-(tert-butyl)-1H-pyrazol-4-yl)-2-(2-fluoro-4-((6-(oxetan-3-yloxy)quinazolin-4-yl)oxy)phenyl) acetamide] | 0.0185
COCCOc1ccc2ncnc(Oc3ccc(CC(=O)Nc4cnn(C(C)(C)C)c4)c(F)c3)c2c1 [Compound 50, N-(1-(tert-butyl)-1H-pyrazol-4-yl)-2-(2-fluoro-4-((6-(2-methoxy-ethoxy)quinazolin-4-yl)oxy)phenyl) acetamide] | 0.0154
CC(C)(C)n1cc(NC(=O)Cc2ncc(Oc3ncnc4ccc(OC5CCNCC5)cc34)cc2F)cn1 [Compound 51, N-(1-(tert-butyl)-1H-pyrazol-4-yl)-2-(3-fluoro-5-((6-(piperidin-4-yloxy)quinazolin-4-yl)oxy)pyridin-2-yl)acetamide] | 0.0187
